Assay results from PubChem BioAssay (NCI).
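Here, GI50 denotes the concentration required for 50% inhibition of growth. TGI is the concentration that stops growth completely.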

Key:
Assay in all cases: DTP human tumour cell line panel, 384-well format
IGROV1 ovarian = test system: IGROV1 ovarian
SK-OV-3 ovarian = test system: SK-OV-3 ovarian
786-0 renal = test system: 786-0 renal
SK-MEL-2 melanoma = test system: SK-MEL-2 melanoma
SNB-19 CNS = test system: SNB-19 CNS
HCT-15 colon = test system: HCT-15 colon
UACC-257 melanoma = test system: UACC-257 melanoma
SW-620 colon = test system: SW-620 colon
MDA-MB-468 breast = test system: MDA-MB-468 breast
K-562 leukemia = test system: K-562 leukemia
TK-10 renal = test system: TK-10 renal
A498 renal = test system: A498 renal
OVCAR-5 ovarian = test system: OVCAR-5 ovarian
SK-MEL-5 melanoma = test system: SK-MEL-5 melanoma
HCT-116 colon = test system: HCT-116 colon
CCRF-CEM leukemia = test system: CCRF-CEM leukemia
PC-3 prostate = test system: PC-3 prostate
CAKI-1 renal = test system: CAKI-1 renal
ACHN renal = test system: ACHN renal
UACC-62 melanoma = test system: UACC-62 melanoma
LOX IMVI melanoma = test system: LOX IMVI melanoma
HOP-62 NSCLC = test system: HOP-62 NSCLC
M14 melanoma = test system: M14 melanoma
NCI-H23 lung = test system: NCI-H23 lung
T-47D breast = test system: T-47D breast
RXF 393 renal = test system: RXF 393 renal
BT-549 breast = test system: BT-549 breast
NCI-H226 lung = test system: NCI-H226 lung
KM12 colon = test system: KM12 colon
NCI-H322M lung = test system: NCI-H322M lung
COLO 205 colon = test system: COLO 205 colon
SF-539 CNS = test system: SF-539 CNS
MALME-3M melanoma = test system: MALME-3M melanoma
SN12C renal = test system: SN12C renal
HOP-92 NSCLC = test system: HOP-92 NSCLC
MDA-MB-231 breast = test system: MDA-MB-231 breast
HCC-2998 colon = test system: HCC-2998 colon
HS 578T breast = test system: HS 578T breast
SF-268 CNS = test system: SF-268 CNS
SR leukemia = test system: SR leukemia
MDA-MB-435 melanoma = test system: MDA-MB-435 melanoma
NCI-H522 lung = test system: NCI-H522 lung
SF-295 CNS = test system: SF-295 CNS
SK-MEL-28 melanoma = test system: SK-MEL-28 melanoma
MOLT-4 leukemia = test system: MOLT-4 leukemia
HL-60(TB) leukemia = test system: HL-60(TB) leukemia
DU-145 prostate = test system: DU-145 prostate
HT29 colon = test system: HT29 colon
SNB-75 CNS = test system: SNB-75 CNS
RPMI-8226 leukemia = test system: RPMI-8226 leukemia
NCI/ADR-RES ovarian = test system: NCI/ADR-RES ovarian
EKVX NSCLC = test system: EKVX NSCLC
OVCAR-3 ovarian = test system: OVCAR-3 ovarian
OVCAR-4 ovarian = test system: OVCAR-4 ovarian
NCI-H460 NSCLC = test system: NCI-H460 NSCLC
A549 NSCLC = test system: A549 NSCLC
U251 glioblastoma = test system: U251 glioblastoma
MCF7 breast = test system: MCF7 breast

CC(C)[C@H](O)C(=O)N[C@@H](C)C(=O)N[C@@H]1C(=O)N(C)CCc2ccccc21
GI50 (IGROV1 ovarian): > 100 µM | TGI (IGROV1 ovarian): > 100 µM | GI50 (SK-OV-3 ovarian): > 100 µM | TGI (SK-OV-3 ovarian): > 100 µM | GI50 ([…]-0 renal): > 100 µM | TGI (786-0 renal): > 100 µM | GI50 (SK-MEL-2 melanoma): > 100 µM | TGI (SK-MEL-2 melanoma): > 100 µM | GI50 (SNB-19 CNS): > 100 µM | TGI (SNB-19 CNS): > 100 µM | GI50 (HCT-15 colon): > 100 µM | TGI (HCT-15 colon): > 100 µM | GI50 (UACC-257 melanoma): > 100 µM | TGI (UACC-257 melanoma): > 100 µM | GI50 (SW-620 colon): > 100 µM | TGI (SW-620 colon): > 100 µM | GI50 (MDA-MB-468 breast): > 100 µM | TGI (MDA-MB-468 breast): > 100 µM | GI50 (K-562 leukemia): > 100 µM | TGI (K-562 leukemia): > 100 µM | GI50 (TK-10 renal): > 100 µM | TGI (TK-10 renal): > 100 µM | GI50 (A498 renal): > 100 µM | TGI (A498 renal): > 100 µM | GI50 (OVCAR-5 ovarian): > 100 µM | TGI (OVCAR-5 ovarian): > 100 µM | GI50 (SK-MEL-5 melanoma): > 100 µM | TGI (SK-MEL-5 melanoma): > 100 µM | GI50 (HCT-116 colon): > 100 µM | TGI (HCT-116 colon): > 100 µM | GI50 (CCRF-CEM leukemia): > 100 µM | TGI (CCRF-CEM leukemia): > 100 µM | GI50 (PC-3 prostate): > 100 µM | TGI (PC-3 prostate): > 100 µM | GI50 (CAKI-1 renal): > 100 µM | TGI (CAKI-1 renal): > 100 µM | GI50 (ACHN renal): > 100 µM | TGI (ACHN renal): > 100 µM | GI50 (UACC-62 melanoma): > 100 µM | TGI (UACC-62 melanoma): > 100 µM | GI50 (LOX IMVI melanoma): > 100 µM | TGI (LOX IMVI melanoma): > 100 µM | GI50 (HOP-62 NSCLC): > 100 µM | TGI (HOP-62 NSCLC): > 100 µM | GI50 (M14 melanoma): > 100 µM | TGI (M14 melanoma): > 100 µM | GI50 (NCI-H23 lung): > 100 µM | TGI (NCI-H23 lung): > 100 µM | GI50 (T-47D breast): > 100 µM | TGI (T-47D breast): > 100 µM | GI50 (RXF 393 renal): > 100 µM | TGI (RXF 393 renal): > 100 µM | GI50 (BT-549 breast): > 100 µM | TGI (BT-549 breast): > 100 µM | GI50 (NCI-H226 lung): > 100 µM | TGI (NCI-H226 lung): > 100 µM | GI50 (KM12 colon): > 100 µM | TGI (KM12 colon): > 100 µM | GI50 (NCI-H322M lung): > 100 µM | TGI (NCI-H322M lung): > 100 µM | GI50 (COLO 205 colon): > 100 µM | TGI (COLO 205 colon): > 100 µM | GI50 (SF-539 CNS): > 100 µM | TGI (SF-539 CNS): > 100 µM | GI50 (MALME-3M melanoma): > 100 µM | TGI (MALME-3M melanoma): > 100 µM | GI50 (SN12C renal): > 100 µM | TGI (SN12C renal): > 100 µM | GI50 (HOP-92 NSCLC): > 100 µM | TGI (HOP-92 NSCLC): > 100 µM | GI50 (MDA-MB-231 breast): > 100 µM | TGI (MDA-MB-231 breast): > 100 µM | GI50 (HCC-2998 colon): > 100 µM | TGI (HCC-2998 colon): > 100 µM | GI50 (HS 578T breast): > 100 µM | TGI (HS 578T breast): > 100 µM | GI50 (SF-268 CNS): > 100 µM | TGI (SF-268 CNS): > 100 µM | GI50 (SR leukemia): > 100 µM | TGI (SR leukemia): > 100 µM | GI50 (MDA-MB-435 melanoma): > 100 µM | TGI (MDA-MB-435 melanoma): > 100 µM | GI50 (NCI-H522 lung): > 100 µM | TGI (NCI-H522 lung): > 100 µM | GI50 (SF-295 CNS): > 100 µM | TGI (SF-295 CNS): > 100 µM | GI50 (SK-MEL-28 melanoma): > 100 µM | TGI (SK-MEL-28 melanoma): > 100 µM | GI50 (MOLT-4 leukemia): > 100 µM | TGI (MOLT-4 leukemia): > 100 µM | GI50 (HL-60(TB) leukemia): > 100 µM | TGI (HL-60(TB) leukemia): > 100 µM | GI50 (DU-145 prostate): > 100 µM | TGI (DU-145 prostate): > 100 µM | GI50 (HT29 colon): > 100 µM | TGI (HT29 colon): > 100 µM | GI50 (SNB-75 CNS): > 100 µM | TGI (SNB-75 CNS): > 100 µM | GI50 (RPMI-8226 leukemia): > 100 µM | TGI (RPMI-8226 leukemia): > 100 µM | GI50 (NCI/ADR-RES ovarian): > 100 µM | TGI (NCI/ADR-RES ovarian): > 100 µM | GI50 (EKVX NSCLC): > 100 µM | TGI (EKVX NSCLC): > 100 µM | GI50 (OVCAR-3 ovarian): > 100 µM | TGI (OVCAR-3 ovarian): > 100 µM | GI50 (OVCAR-4 ovarian): > 100 µM | TGI (OVCAR-4 ovarian): > 100 µM | GI50 (NCI-H460 NSCLC): > 100 µM | TGI (NCI-H460 NSCLC): > 100 µM | GI50 (A549 NSCLC): > 100 µM | TGI (A549 NSCLC): > 100 µM | GI50 (U251 glioblastoma): > 100 µM | TGI (U251 glioblastoma): > 100 µM | GI50 (MCF7 breast): > 100 µM | TGI (MCF7 breast): > 100 µM
